Experimental data reported in US20120088668A1, “THINNING AGENT” (TAMINCO, NAAMLOZE VENNOOTSCHAP, priority 2009, published 2012).

Legend:
[1] = tested on: Chrysanthemum cv Herby Mixed; test: Flower bud thinning, Chrysanthemum cv Herby Mixed: auxin/auxin precursor with or without acetaminophen; assay type: in vivo; conditions: for Mean Number of Buds/plant: auxins/precursors each at 10^−2 Molar solutions, AC at 3 g per hectare equivalent, applied 2 Dec. 2009 (first bud), measured 12 Jan. 2010 (flowering); for % Improvement over control ie (C) minus (A) or (B)/(C × 100): reduction of buds/plant against Control (C)
Method: Cultural Details: plants were sown in a commercial seed compost and then “pricked out” into a professional grade all-purpose compost in 9 cm pots set out in a randomized block design. Normal daylight plus supplementary lighting to provide a minimum of 10 hours per day. Heating was given to a minimum of 60 degrees Fahrenheit during the day and 40 degrees F. at night.
Sowing Date: 5 Oct. […] Application Date: 2 Dec. […] Measurement Date: 12 Jan. […] Measurement: Number of buds per plant.
A number of auxins or auxin precursors were applied, each at 10^−2 Molar solutions. Addition of acetaminophen (AC) was at 3 g per hectare equivalent in each test.

[2] = tested on: Chrysanthemum cv Herby Mixed; test: Flower bud thinning, Chrysanthemum cv Herby Mixed: agrochemically acceptable additives with AN or AN + AC; assay type: in vivo; conditions: for Mean Number of Buds/plant: AN 1 g, AC 3 g actives per hectare in 250 litres water, additive per ha: Glucose 150 g, Succinic acid 50 g, Ascorbic acid 50 g, Corn oil 500 g, L-arginine 30 g, applied 4 Feb. 2010 (first bud), measured 12 Mar. 2010
Method: Cultural Details: plants were sown in a commercial seed compost and then “pricked out” into a professional grade all-purpose compost in 9 cm pots set out in a randomized block design. Normal daylight plus supplementary lighting to provide a minimum of 10 hours per day. Heating was given to a minimum of 60 degrees Fahrenheit during the day and 40 degrees at night. Certain agrochemically acceptable additives, as examples (rates per ha provided in the Table below), were added to either anthranilic acid ([…], applied in 250 litres water per hectare, […]) or anthranilic acid plus acetaminophen (1 gram per litre and 3 gram per litre solution respectively, applied in 250 litres water per hectare, =1 g and 3 g actives total respectively per hectare).
Sowing Date: 26 Oct. 2009, in plugs. Application Date: 4 Feb. 2010 (first bud). Measurement Date: 12 Mar. 2010 (flowering). Measurement: Number of buds per plant.

Row | SMILES | Mean Number of Buds/plant [1] | % Improvement over control ie (C) minus (A) or (B)/(C × 100) [1] | Mean Number of Buds/plant [2] | % Improvement over untreated ([2]; reduction of buds/plant against Untreated)
1 | Nc1c(O)cccc1C(=O)O [3-Hydroxyanthranilic acid] | 2.5 | +7.4% |  | 
2 | CC(=O)Nc1ccc(O)cc1 [AC, N-(4-hydroxypheyl)acetamide, reference compound] | 2.7 |  | 2.8 | 
3 | CC(N)=O [Acetamide] | 2.3 | +14.8% |  | 
4 | Nc1ccccc1C(=O)[O-].[Na+] [Anthranilic Acid monosodium salt] | 2.3 | +14.8% |  | 
5 | COC(=O)c1ccccc1N [Anthranilic acid methyl ester] | 2.2 | +18.5% |  | 
6 | Nc1ccccc1C(=O)O [Anthranilic acid, anthranilic acid] | 2.2 | +18.5% | 2.3 | +17.8%
7 | NC(=O)Cc1c[nH]c2ccccc12 [Indole-3-acetamide] | 2.3 | +14.8% |  | 
8 | N[C@@H](Cc1c[nH]c2ccccc12)C(=O)O [L-Tryptophan] | 2.4 | +11.1% |  | 
9 | NCCc1c[nH]c2ccccc12 [Tryptamine] | 2.7 | +0.0% |  | 
